Experimental data: article PMC12460146, “Impact of metabolic enzyme activity variability on dabrafenib disposition” (Frontiers in Pharmacology, 2025)
“Also recorded” adds a separate entry of the source.

How the values were obtained:
[1] = target: T1, CYP3A4.20 (Homo sapiens, UniProt P08684); assay: In vitro enzyme kinetics assay using CYP3A4 baculosomes: CYP3A4.20; format: in vitro ADME
T1 construct: made in house; host or cells: insect cells (baculovirus, pFastBac-Dual)
Experimental: (§1) Recombinant CYP3A4 and CYPb5 proteins were prepared according to our previously established protocol ([Fang et al., 2017]). Briefly, dual expression vectors (pFastBac-Dual) were used to construct CYP3A4-CYPOR and CYPb5-CYPOR expression plasmids. Subsequently, the corresponding baculosomes were harvested by ultracentrifugation using the baculovirus-insect cell expression system, and the target proteins were confirmed. Protein expression levels for each type were qualitatively and quantitatively assessed by Western blotting and BCA assay, respectively.
(§2) The 200 µL incubation system comprised 0.1 M Tris-HCl, 5 µg CYP3A4.1 or other CYP3A4 variants, 5 µg CYPb5, 1 mM NADPH, and dabrafenib. A dabrafenib concentration of 10 µM was used to evaluate variant specific metabolic activity. Michaelis-Menten kinetics were assessed using dabrafenib concentrations of 5, 10, 20, 50, 100, and 250 µM. Subsequent processing steps followed the procedures outlined in Section 2.3.

[2] = tested on: rat liver microsomes (RLM); assay: Michaelis-Menten kinetics of dabrafenib metabolism (hydroxy-dabrafenib formation) in RLM; format: in vitro ADME; conditions: RLM 0.5 mg/mL, dabrafenib 0.5–200 µM
Experimental: RLM was obtained according to established methods ([Wang et al., 2015]). Briefly, rat livers were weighed and homogenized in ice-cold phosphate buffer containing […] sucrose. The homogenate was centrifuged at 17,000 × g for 15 min at 4 °C. The supernatant was transferred to new tubes and recentrifuged at 17,000 × g for 15 min. The resulting supernatant was then ultracentrifuged at 100,000 × g for 60 min at 4 °C. The microsomal pellet was resuspended in ice-cold 0.01 mmol/L PBS (pH = 7.2–7.4). Protein concentration was determined using a Bradford assay kit (Thermo Scientific, Waltham, MA, United States).
(§3) The 200 µL incubation system contained 0.1 M Tris-HCl (pH = 7.6), 0.5 mg/mL RLM or HLM, 1 mM NADPH, and dabrafenib. […] Carbamazepine (100 ng/mL) was added as the IS. […] Hydroxy-dabrafenib concentrations were quantified via UPLC-MS/MS.
(§4) For kinetic studies, Michaelis-Menten curves were obtained using dabrafenib concentrations (0.5–200 µM) in RLM and HLM. Samples were processed as above. Curves were plotted (dabrafenib concentration vs. V) and fitted nonlinearly (Prism 9, GraphPad).
The concentrations of dabrafenib and hydroxy-dabrafenib were quantified by UPLC-MS/MS. […] Quantification transitions were m/z 520.10 → 307.20 for dabrafenib, m/z 536.20 → 323.10 for hydroxy-dabrafenib, and m/z 237.10 → 194.10 for IS.

[3] = cited from earlier work
[4] = tested on: human liver microsomes (HLM); assay: Michaelis-Menten kinetics of dabrafenib metabolism (hydroxy-dabrafenib formation) in HLM; format: in vitro ADME; conditions: HLM 0.5 mg/mL, dabrafenib 0.5–200 µM
Experimental: as §3, §4
The concentrations of dabrafenib and hydroxy-dabrafenib were quantified by UPLC-MS/MS. Chromatographic separation was performed on a Waters Acquity UPLC BEH C18 column (2.1 mm × 50 mm, 1.7 µm particle size) maintained at 40 °C. The mobile phase consisted of 0.1% aqueous formic acid (A) and acetonitrile (B), delivered at 0.3 mL/min with the following gradient program: 90% A (0–0.15 min), linear transition to 10% A (0.15–0.8 min), 10% A (0.8–1.5 min), and return to 90% A (1.5–2 min). Total run time was 2 min. Detection employed a Waters Xevo TQS triple quadrupole mass spectrometer (Milford, MA, United States) operated in positive-ion multiple reaction monitoring mode. Quantification transitions were m/z 520.10 → 307.20 for dabrafenib, m/z 536.20 → 323.10 for hydroxy-dabrafenib, and m/z 237.10 → 194.10 for IS.

[5] = target: T2, CYP3A4.1 (Homo sapiens, UniProt P08684); assay: In vitro enzyme kinetics assay using CYP3A4 baculosomes: CYP3A4.1; format: in vitro ADME; conditions: dabrafenib 5–250 µM
T2 construct: made in house; host or cells: insect cells (baculovirus, pFastBac-Dual)
T2 sequence (P08684 whole entry): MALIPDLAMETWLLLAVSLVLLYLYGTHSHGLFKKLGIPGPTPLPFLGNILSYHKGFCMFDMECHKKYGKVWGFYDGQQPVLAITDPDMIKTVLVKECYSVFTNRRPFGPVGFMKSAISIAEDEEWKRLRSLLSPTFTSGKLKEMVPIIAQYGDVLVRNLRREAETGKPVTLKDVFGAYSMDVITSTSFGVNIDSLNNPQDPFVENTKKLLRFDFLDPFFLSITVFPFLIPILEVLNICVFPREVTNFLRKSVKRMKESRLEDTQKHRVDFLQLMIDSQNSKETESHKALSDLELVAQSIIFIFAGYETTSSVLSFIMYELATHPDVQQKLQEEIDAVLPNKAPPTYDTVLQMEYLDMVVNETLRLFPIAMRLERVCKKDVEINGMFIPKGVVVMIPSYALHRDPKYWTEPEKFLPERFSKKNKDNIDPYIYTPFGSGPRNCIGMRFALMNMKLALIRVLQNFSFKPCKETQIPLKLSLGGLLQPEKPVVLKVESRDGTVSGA
Experimental: as §1, §2

[6] = target: T3, CYP3A4.28 (Homo sapiens, UniProt P08684, L22V); assay: In vitro enzyme kinetics assay using CYP3A4 baculosomes: CYP3A4.28; format: in vitro ADME
T3 construct: made in house; host or cells: insect cells (baculovirus, pFastBac-Dual)
T3 sequence (P08684 whole entry L22V): as the sequence (P08684 whole entry) above, with L22V counted along it
Experimental: as §1, §2

[7] = target: T4, CYP3A4.8 (Homo sapiens, UniProt P08684, R130Q); assay: In vitro enzyme kinetics assay using CYP3A4 baculosomes: CYP3A4.8; format: in vitro ADME
T4 construct: made in house; host or cells: insect cells (baculovirus, pFastBac-Dual)
T4 sequence (P08684 whole entry R130Q): as the sequence (P08684 whole entry) above, with R130Q counted along it
Experimental: as §1, §2

T1 sequence (P08684 with tags, fused parts or gaps limits assumed): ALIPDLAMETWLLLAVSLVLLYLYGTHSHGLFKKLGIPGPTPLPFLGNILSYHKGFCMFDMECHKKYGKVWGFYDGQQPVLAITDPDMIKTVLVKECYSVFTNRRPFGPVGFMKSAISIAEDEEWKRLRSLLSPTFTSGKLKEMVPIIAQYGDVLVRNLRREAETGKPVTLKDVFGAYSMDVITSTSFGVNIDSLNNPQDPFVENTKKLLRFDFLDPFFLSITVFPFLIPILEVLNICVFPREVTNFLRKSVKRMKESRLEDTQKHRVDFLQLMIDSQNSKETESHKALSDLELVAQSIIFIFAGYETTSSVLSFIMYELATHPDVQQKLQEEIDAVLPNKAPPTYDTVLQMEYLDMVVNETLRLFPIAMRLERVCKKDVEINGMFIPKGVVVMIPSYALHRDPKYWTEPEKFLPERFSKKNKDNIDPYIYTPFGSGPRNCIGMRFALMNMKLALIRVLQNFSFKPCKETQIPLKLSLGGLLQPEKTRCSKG

In the case of `CC(C)(C)c1nc(-c2cccc(NS(=O)(=O)c3c(F)cccc3F)c2F)c(-c2ccnc(N)n2)s1` [Dabrafenib], the “metabolic activity toward dabrafenib (in words)” value [1] is reported as “nearly complete loss of activity; also recorded: lack catalytic activity”, the Km [2] is reported as 14.6 ± 3.08 µM and the Vmax [2] is reported as 0.14 ± 0.01 pmol/L/min/µg. For the same compound, the Cmax ([3]; single 150 mg oral dose, clinical, ref Puszkiel et al., 2019, Balakirouchenane et al., 2021) was 2,160 ng/mL, the “oral bioavailability (F)” value ([3]; single-dose administration, ref Denton et al., 2013) was 95% and the Km [4] was 3.5 ± 0.56 µM. For the same compound, the Vmax [4] was 0.16 ± 0.001 pmol/L/min/µg, the Vmax [5] was 0.266 ± 0.007 pmoL/L/min/μg CYP3A4 and the “increase of relative clearance vs CYP3A4.1” value [6] was 26.67%. For the same compound, the Vmax ([6]; dabrafenib 5–250 µM) was 0.362 ± 0.026 pmoL/L/min/μg CYP3A4, the “decrease of relative clearance vs CYP3A4.1” value [7] was 66.67% and the Vmax ([7]; dabrafenib 5–250 µM) was 0.247 ± 0.030 pmoL/L/min/μg CYP3A4.
